Here are results for 20 compounds from patent US8563542B2 (Cyclacel Limited, priority 2007, dated 2013).

The target in one experiment is T1, AA (Homo sapiens, UniProt O14965).
T1 sequence (O14965 1-403): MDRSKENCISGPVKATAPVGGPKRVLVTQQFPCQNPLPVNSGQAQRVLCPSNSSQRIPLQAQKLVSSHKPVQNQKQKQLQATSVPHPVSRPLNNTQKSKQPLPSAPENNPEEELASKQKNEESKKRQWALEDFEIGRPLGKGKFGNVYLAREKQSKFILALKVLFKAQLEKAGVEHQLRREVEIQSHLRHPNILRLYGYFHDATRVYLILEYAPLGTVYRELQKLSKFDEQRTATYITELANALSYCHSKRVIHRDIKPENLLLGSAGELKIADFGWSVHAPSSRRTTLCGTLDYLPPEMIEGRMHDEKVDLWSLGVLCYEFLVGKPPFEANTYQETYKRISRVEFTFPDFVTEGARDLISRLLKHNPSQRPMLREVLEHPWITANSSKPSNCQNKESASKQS
Kind of experiment: AA IC50 (Table 1; no method given). It is filed as biochemical. As to conditions: Table 2, AurA IC50; class symbols; read-out: AurA IC50.

The target in a further experiment is PLK1 (Homo sapiens, UniProt P53350). Kind of experiment: PLK1 protein kinase assay (CDC25C phosphorylation, [γ-32P]-ATP). It counts as biochemical. As to conditions: Table 2, PLK1 IC50; class symbols; read-out: PLK1 IC50.
Sequence of PLK1 (P53350 whole entry): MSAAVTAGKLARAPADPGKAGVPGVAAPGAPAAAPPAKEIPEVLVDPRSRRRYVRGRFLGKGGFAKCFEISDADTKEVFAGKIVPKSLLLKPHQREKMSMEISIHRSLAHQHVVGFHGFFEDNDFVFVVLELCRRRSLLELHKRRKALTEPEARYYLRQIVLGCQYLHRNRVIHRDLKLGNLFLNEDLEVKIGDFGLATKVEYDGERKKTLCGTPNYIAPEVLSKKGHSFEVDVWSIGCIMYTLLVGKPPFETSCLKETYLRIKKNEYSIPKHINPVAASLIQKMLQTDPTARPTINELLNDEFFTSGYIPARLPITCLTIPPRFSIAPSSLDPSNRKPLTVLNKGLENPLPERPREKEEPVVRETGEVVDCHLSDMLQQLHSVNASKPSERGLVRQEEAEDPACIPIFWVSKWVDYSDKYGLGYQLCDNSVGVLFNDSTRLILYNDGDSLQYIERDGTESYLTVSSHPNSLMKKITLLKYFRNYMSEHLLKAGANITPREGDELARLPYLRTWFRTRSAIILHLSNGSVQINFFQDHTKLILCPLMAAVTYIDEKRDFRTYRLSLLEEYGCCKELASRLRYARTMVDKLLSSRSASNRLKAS

As to `CN1CCC(NS(=O)(=O)c2cccc(Nc3ncc4c(n3)N(C3CCCC3)CCC(=O)N4C)c2)CC1` [compound 103, 3-(9-Cyclopentyl-5-methyl-6-oxo-6,7,8,9-tetrahydro-5H-pyrimido[4,5-b][1,4]diazepin-2-ylamino)-N-(1-methyl-piperidin-4-yl)-benzenesulfonamide], the IC50 at AA was less than 1000 nM; on PLK1, less than 10000 nM.

Regarding `COCCNS(=O)(=O)c1ccc(Nc2ncc3c(n2)N(C2CCCC2)CCC(=O)N3C)cc1` [compound 104, 4-(9-Cyclopentyl-5-methyl-6-oxo-6,7,8,9-tetrahydro-5H-pyrimido[4,5-b][1,4]diazepin-2-ylamino)-N-(2-methoxy-ethyl)-benzenesulfonamide], the IC50 on AA is less than 100 nM; on PLK1, less than 10000 nM.

With `COCCNS(=O)(=O)c1cccc(Nc2ncc3c(n2)N(C2CCCC2)CCC(=O)N3C)c1` [compound 108, 3-(9-Cyclopentyl-5-methyl-6-oxo-6,7,8,9-tetrahydro-5H-pyrimido[4,5-b][1,4]diazepin-2-ylamino)-N-(2-methoxy-ethyl)-benzenesulfonamide], the results for the IC50 at AA and at PLK1 were less than 1000 nM and less than 10000 nM, respectively.

As to `CN1C(=O)CCN(C2CCCC2)c2nc(Nc3cccc(S(=O)(=O)N4CCCC4)c3)ncc21` [compound 109, 9-Cyclopentyl-5-methyl-2-[3-(pyrrolidine-1-sulfonyl)-phenylamino]-5,7,8,9-tetrahydro-pyrimido[4,5-b][1,4]diazepin-6-one], the half-inhibitory concentration (IC50) at AA and on PLK1 was less than 1000 nM each time.

For `CN1C(=O)CCN(C2CCCC2)c2nc(Nc3cccc(S(=O)(=O)NCc4ccccc4)c3)ncc21` [compound 110, N-Benzyl-3-(9-cyclopentyl-5-methyl-6-oxo-6,7,8,9-tetrahydro-5H-pyrimido[4,5-b][1,4]diazepin-2-ylamino)-benzenesulfonamide], the results for the IC50 on AA and at PLK1 were less than 1000 nM and less than 10000 nM, respectively.

Regarding `CC(C)N1CCC(=O)N(C)c2cnc(Nc3ccc4c(c3)CS(=O)(=O)C4)nc21` [compound 115, 2-(2,2-Dioxo-2,3-dihydro-1H-2lambda*6*- benzo[c]thiophen-5-ylamino)-9-isopropyl-5-methyl-5,7,8,9-tetrahydro-pyrimido[4,5-b][1,4]diazepin-6-one], the results for the IC50 at AA and on PLK1 were less than 100 nM and less than 10000 nM, respectively.

For the compound `CN1C(=O)C2(CCC2)CN(C2CCCC2)c2nc(Nc3ccc4c(c3)CS(=O)(=O)C4)ncc21` [compound 117, (9-Cyclopentyl-2-(2,2-dioxo-2,3-dihydro-1H-2lambda*6*-benzo[c]thiophen-5-ylamino)5-methyl-6-oxo-6,7,8,9-tetrahydro-5H-spiro[pyrimido[4,5-b][1,4]diazepin-3,1′-cyclobutane+], the concentration for half-maximal inhibition (IC50) on AA and on PLK1 was less than 1000 nM in each case.

On to `C=CCN1CCC(=O)N(C)c2cnc(Nc3ccc4c(c3)CS(=O)(=O)C4)nc21` [compound 119, 9-Allyl-2-(2,2-dioxo-2,3-dihydro-1H-2lambda*6*-benzo[c]thiophen-5-ylamino)-5-methyl-5,7,8,9-tetrahydro-pyrimido[4,5-b][1,4]diazepin-6-one], for which the concentration for half-maximal inhibition (IC50) is less than 100 nM at AA and less than 10000 nM at PLK1.

With `CN1C(=O)CCN(C2CCCC2)c2nc(Nc3ccc(Cl)cc3)ncc21` [compound 123, 2-(4-Chloro-phenylamino)-9-cyclopentyl-5-methyl-5,7,8,9-tetrahydro-pyrimido[4,5-b][1,4]diazepin-6-one], the IC50 at AA and at PLK1 was less than 1000 nM each time.

With `CN1C(=O)CCN(C2CCCC2)c2nc(NCc3ccco3)ncc21` [compound 124, 9-Cyclopentyl-2-[(furan-2-ylmethyl)-amino]-5-methyl-5,7,8,9-tetrahydro-pyrimido[4,5-b][1,4]diazepin-6-one], the IC50 at AA and at PLK1 was less than 10000 nM in each case.

For the compound `Cc1cc2cc(Nc3ncc4c(n3)N(C3CCCC3)CCC(=O)N4C)ccc2[nH]1` [compound 125, 9-Cyclopentyl-5-methyl-2-(2-methyl-1H-indol-5-ylamino)-5,7,8,9-tetrahydro-pyrimido[4,5-b][1,4]diazepin-6-one], the values for the IC50 at AA and at PLK1 were less than 100 nM and less than 1000 nM, respectively.

Turning to `CN1C(=O)CCN(C2CCCC2)c2nc(NCc3cccc4c3OCCO4)ncc21` [compound 128, 9-Cyclopentyl-2-[(2,3-dihydro-benzo[1,4]dioxin-5-ylmethyl)-amino]-5-methyl-5,7,8,9-tetrahydro-pyrimido[4,5-b][1,4]diazepin-6-one], the IC50 was less than 10000 nM at AA and less than 1000 nM at PLK1.

In the case of `CN1C(=O)CCN(C2CCCC2)c2nc(Nc3ccc4cc[nH]c4c3)ncc21` [compound 130, 9-Cyclopentyl-2-(1H-indo1-6-ylamino)-5-methyl-5,7,8,9-tetrahydro-pyrimido[4,5-b][1,4]diazepin-6-one], the 50% inhibitory concentration (IC50) on AA is less than 1000 nM; at PLK1, less than 10000 nM.

In the case of `CN1C(=O)CCN(C2CCCC2)c2nc(NCc3ccc(-c4csnn4)cc3)ncc21` [compound 132, 9-Cyclopentyl-5-methyl-2-(4-[1,2,3]thiadiazol-4-yl-benzylamino)-5,7,8,9-tetrahydro-pyrimido[4,5-b][1,4]diazepin-6-one], the IC50 at AA and at PLK1 was less than 10000 nM throughout.

Turning to `Cc1cccc(Nc2ncc3c(n2)N(C2CCCC2)CCC(=O)N3C)c1` [compound 137, 9-Cyclopentyl-5-methyl-2-m-tolylamino-5,7,8,9-tetrahydro-pyrimido[4,5-b][1,4]diazepin-6-one], the IC50 at AA is less than 100 nM; on PLK1, less than 10000 nM.

Take `COc1cccc(Nc2ncc3c(n2)N(C2CCCC2)CCC(=O)N3C)c1` [compound 138, 9-Cyclopentyl-2-(3-methoxy-phenylamino)-5-methyl-5,7.8,9-tetrahydro-pyrimido[4,5-b][1,4]diazepin-6-one]: the IC50 at AA was less than 1000 nM; at PLK1 it was less than 10000 nM.

As to `CN1C(=O)CCN(C2CCCC2)c2nc(Nc3ccc4[nH]ncc4c3)ncc21` [compound 139, 9-Cyclopentyl-2-(1H-indazol-5-ylamino)-5-methyl-5,7,8,9-tetrahydro-pyrimido[4,5-b][1,4]diazepin-6-one], the half-maximal inhibitory concentration (IC50) at AA is less than 100 nM; on PLK1 it was less than 1000 nM.

Take `Cc1c(Nc2ncc3c(n2)N(C2CCCC2)CCC(=O)N3C)cccc1C(=O)NC1CCN(C)CC1` [compound 140, 3-(9-Cyclopentyl-5-methyl-6-oxo-6,7,8,9-tetrahydro-5H-pyrimido[4,5-b][1,4]diazepin-2-ylamino)-2-methyl-N-(1-methyl-piperidin-4-yl)-benzamide]: the IC50 at AA and at PLK1 was less than 10000 nM in each case.

Regarding `CN1C(=O)CCN(C2CCCC2)c2nc(Nc3cccc(S(=O)(=O)N4CCNCC4)c3)ncc21` [compound 146], the IC50 at AA and at PLK1 was less than 10000 nM throughout.

Take `COc1cc(C(=O)NCCCCO)ccc1Nc1ncc2c(n1)N(C1CCCC1)CCC(=O)N2C` [compound 151, 4-(9-Cyclopentyl-5-methyl-6-oxo-6,7,8,9-tetrahydro-5H-pyrimido[4,5-b][1,4]diazepin-2-ylamino)-N-(4-hydroxy-butyl)-3-methoxy-benzamide]: the half-inhibitory concentration (IC50) is less than 10000 nM at AA and less than 1000 nM on PLK1.
